Data reported in paper PMC7894401 (CPT: Pharmacometrics & Systems Pharmacology, 2020).
“And” between values parts separate entries of the source, which are not always exact repeats. Equal entries are not always repeated. Where two headings read alike, the source gives them in different places. Values belong to the molecule of their own block, whether it stands above or below them.

Legend:
[1] = Simcyp input, cited from earlier work; for LogP: ref 42 (ertugliflozin), DrugBank 50 (dapagliflozin), DrugBank 49 (MFA)
PBPK model = test: PBPK model; parameters: species or system human
UGT2B4 = biological target: T1, UGT2B4 (Homo sapiens, UniProt P06133); test: Mefenamic acid inhibition of UGT2B4; assay type: biochemical; details: HLM, 1–100 µM
T1 sequence (P06133 24-528): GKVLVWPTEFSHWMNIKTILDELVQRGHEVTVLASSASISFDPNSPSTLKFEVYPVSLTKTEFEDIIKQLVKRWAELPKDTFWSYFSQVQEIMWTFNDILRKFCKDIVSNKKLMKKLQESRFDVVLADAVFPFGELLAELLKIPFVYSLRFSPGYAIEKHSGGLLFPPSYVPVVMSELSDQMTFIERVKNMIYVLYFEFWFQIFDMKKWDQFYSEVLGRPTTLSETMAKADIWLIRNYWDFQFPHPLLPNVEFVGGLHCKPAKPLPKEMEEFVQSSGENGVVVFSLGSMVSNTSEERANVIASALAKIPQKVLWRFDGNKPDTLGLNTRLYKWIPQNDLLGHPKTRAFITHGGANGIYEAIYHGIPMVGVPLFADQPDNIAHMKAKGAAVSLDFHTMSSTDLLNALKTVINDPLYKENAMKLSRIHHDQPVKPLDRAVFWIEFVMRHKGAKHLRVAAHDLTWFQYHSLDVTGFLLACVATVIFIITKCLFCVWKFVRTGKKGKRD

[2] = cited from earlier work; for Vss: after i.v. administration; for CLiv: intravenous plasma clearance
UGT1A9 [3] = biological target: T2, UGT1A9 (Homo sapiens, UniProt O60656); test: In vivo Ki of MFA fitted in the PBPK model to the clinical MFA–dapagliflozin DDI; details: UGT1A9 and UGT2B7, relative potencies kept
T2 sequence (O60656 26-530): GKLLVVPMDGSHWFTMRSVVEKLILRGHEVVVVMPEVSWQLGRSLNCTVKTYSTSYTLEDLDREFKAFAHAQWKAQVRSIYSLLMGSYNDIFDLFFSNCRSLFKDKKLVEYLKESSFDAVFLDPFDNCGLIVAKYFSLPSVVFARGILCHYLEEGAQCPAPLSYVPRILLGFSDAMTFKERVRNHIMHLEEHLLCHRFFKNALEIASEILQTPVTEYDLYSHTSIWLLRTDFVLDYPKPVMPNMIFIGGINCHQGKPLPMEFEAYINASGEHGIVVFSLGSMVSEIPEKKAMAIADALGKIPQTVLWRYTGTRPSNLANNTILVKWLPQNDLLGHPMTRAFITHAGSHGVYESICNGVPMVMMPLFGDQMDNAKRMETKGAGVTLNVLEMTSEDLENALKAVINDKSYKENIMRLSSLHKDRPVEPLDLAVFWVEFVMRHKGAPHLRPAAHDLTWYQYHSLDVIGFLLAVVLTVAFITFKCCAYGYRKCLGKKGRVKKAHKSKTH

UGT = details: ref 18 (ertugliflozin), 39 (dapagliflozin); cited from earlier work
[4] = human ADME study, ref 12 (ertugliflozin), 23 (dapagliflozin), cited from earlier work; for Renal excretion of unchanged drug: % of dose
PBPK = test: PBPK; parameters: species or system human; details: dapagliflozin with MFA
[5] = blood/plasma ratio; ref 45 (ertugliflozin), 46 (dapagliflozin); cited from earlier work
CYP = test: Overall oxidative; assay type: in vitro ADME; details: human, human liver microsomes (model input, not an incubation)
UGT1A9 [6] = biological target: T2, UGT1A9; test: UGT1A9 contribution to metabolism; assay type: in vitro ADME; details: for fm,UGT1A9 observed: calculated from clinical ADME and reaction phenotyping data; for microsomal CLint: human
UGT2B4/2B7 [7] = test: UGT2B4/2B7 contribution to metabolism; assay type: in vitro ADME, human; details: for fm,UGT2B7 observed: calculated from clinical ADME and reaction phenotyping data
[8] = system: UGT2B7 (UGT2B4/2B7 contribution assigned to UGT2B7); test: UGT2B4/2B7 contribution to metabolism; assay type: in vitro ADME, human; details: human
Caco‐2 = details: ref 17 (ertugliflozin), 46 (dapagliflozin); cited from earlier work
[9] = cited from earlier work
[10] = Human ADME study with 14C-labelled drug: excretion and metabolite recovery; assay type: in vivo; details: human ADME study (ertugliflozin ref 12, dapagliflozin ref 23)
CYP3A5 [11] = details: in vitro CYP reaction phenotyping, cited from earlier work
CYP3A5 [12] = test: CYP3A5 contribution to metabolism; assay type: in vitro ADME, human
UGT2B4/2B7 [13] = details: cited from earlier work
CYP3A4 [14] = details: in vitro CYP reaction phenotyping, cited from earlier work
CYP2C8 [15] = test: CYP2C8 contribution to metabolism; assay type: in vitro ADME, human
UGT1A9 [16] = biological target: T2, UGT1A9; details: in vitro UGT reaction phenotyping; cited from earlier work
CYP2C8 [17] = details: in vitro CYP reaction phenotyping, cited from earlier work
[18] = fraction unbound in plasma; ref 45 (ertugliflozin), 46 (dapagliflozin); cited from earlier work
CYP3A4 [19] = test: CYP3A4 contribution to metabolism; assay type: in vitro ADME, human
[20] = probenecid 500-mg twice-daily dose
[21] = dapagliflozin multiple oral dose 10 mg once daily
[22] = dapagliflozin multiple oral dose 50 mg once daily
[23] = dapagliflozin single oral dose 10 mg
[24] = ref 15 (ertugliflozin), 38 (dapagliflozin)
[25] = dapagliflozin single oral dose 10 mg, geometric mean
[26] = retrospectively calculated from CLiv, CLr, CYP fm and reaction phenotyping
[27] = ertugliflozin multiple oral dose 5 mg once daily
[28] = ertugliflozin multiple oral dose 15 mg once daily
[29] = ertugliflozin single dose 0.1 mg administered intravenously
[30] = ertugliflozin single oral dose 0.5 mg
[31] = ertugliflozin single oral dose 2.5 mg
[32] = ertugliflozin single oral dose 10 mg
[33] = ertugliflozin single oral dose 15 mg
[34] = ertugliflozin single oral dose 30 mg
[35] = ertugliflozin single oral dose 100 mg
[36] = ertugliflozin single oral dose 300 mg
[37] = ertugliflozin single oral dose 0.5 mg, geometric mean (%CV)
[38] = ertugliflozin single oral dose 2.5 mg, geometric mean (%CV)
[39] = ertugliflozin single oral dose 10 mg, geometric mean (%CV)
[40] = ertugliflozin single oral dose 30 mg, geometric mean (%CV)
[41] = ertugliflozin single oral dose 100 mg, geometric mean (%CV)
[42] = ertugliflozin single oral dose 300 mg, geometric mean (%CV)

- AUC predicted/ observed ratio (PBPK model; MFA single oral dose 500 mg): 0.89
- Cmax predicted/ observed ratio (PBPK model; MFA single oral dose 500 mg): 0.92
- Inhibition of UGT2B4 in vitro (UGT2B4): did not inhibit
- Fold adjustment of in vitro to in vivo UGT Ki values (increased potency) (UGT1A9 [3]): ~ 2.9 fold
SMILES: Cc1cccc(Nc2ccccc2C(=O)O)c1C [MFA, mefenamic acid]
- LogP [1]: 5.4
- pKa ([1]; ref DrugBank 49): 3.89
- Observed AUCinf ([2]; MFA single oral dose 500 mg): 34200 ng·h/mL
- Observed Cmax ([2]; MFA single oral dose 500 mg): 6900 ng/mL

- AUCR predicted/observed ratio (PBPK): 1.0
- CmaxR predicted/observed ratio (PBPK): 1.0
- microsomal CLint (CYP): 4 µL/min/mg
- AUC predicted/ observed ratio (PBPK model; [21]): 1.06
- Cmax predicted/ observed ratio (PBPK model; [21]): 1.03
- AUC predicted/ observed ratio (PBPK model; [22]): 1.06
- Cmax predicted/ observed ratio (PBPK model; [22]): 0.84
- AUC predicted/ observed ratio (PBPK model; [23]): 0.92
- Cmax predicted/ observed ratio (PBPK model; [23]): 0.87
- fm,UGT1A9 observed (UGT1A9 [6]): 0.79
- microsomal CLint (UGT1A9 [6]): 30 µL/min/mg
- Relative contribution of UGT1A9 to UGT metabolism (UGT1A9 [6]; in vitro UGT reaction phenotyping of this paper (HLM with UGT1A9 inhibitors)): 90%
- fm,UGT2B7 observed (UGT2B4/2B7 [7]): 0.09
- Remaining UGT metabolism assigned to UGT2B7 (UGT2B4/2B7 [7]; remainder after UGT1A9 contribution): 10%
- microsomal CLint [8]: 3 µL/min/mg
- Fe observed (fraction excreted unchanged in urine) [10]: 0.02
SMILES: CCOc1ccc(Cc2cc([C@@H]3O[C@H](CO)[C@@H](O)[C@H](O)[C@H]3O)ccc2Cl)cc1 [Dapagliflozin, dapagliflozin]
- Share of systemic UGT clearance occurring in the liver (UGT): 90%
- Renal excretion of unchanged drug [4]: 2%
- Elimination by glucuronidation [4]: 88%
- Elimination by oxidation (converted to oxidative metabolites) [4]: 10%
- LogP [1]: 2.52
- B/P ratio [5]: 0.88
- Caco‐2 permeability coefficient (Caco‐2): 15.9 10^–6 cm/s
- Increase in dapagliflozin exposure ([9]; co-administration with mefenamic acid): 51%
- Vss [2, 24]: 1.19 L/kg
- Observed Cmax [2, 21]: 119 ng/mL
- Observed Cmax [2, 22]: 728 ng/mL
- Observed AUCinf [2, 25]: 628 ng·h/mL
- Observed Cmax [2, 25]: 143 ng/mL
- CLiv [2, 24]: 12.4 L/h
- Absolute bioavailability (F) ([2]; oral, ref 15 (ertugliflozin), 38 (dapagliflozin)): 78%

SMILES: Cc1ccc([C@@H]2O[C@H](CO)[C@@H](O)[C@H](O)[C@H]2O)cc1Cc1ccc(-c2ccc(F)cc2)s1 [canagliflozin]
- Increase in canagliflozin exposure ([9]; co-administration with probenecid): 21%

- fm,CYP3A5 observed (CYP3A5 [12]; fm,CYP × % contribution): 0.012
- CLint, CYP: CYP3A5 (CYP3A5 [12]; [26]): 0.006 µL/min/pmol
- fm,CYP2C8 observed (CYP2C8 [15]; fm,CYP × % contribution): 0.005
- CLint, CYP: CYP2C8 (CYP2C8 [15]; [26]): 0.011 µL/min/pmol
- AUC predicted/ observed ratio (PBPK model; [27]): 1.03
- Cmax predicted/ observed ratio (PBPK model; [27]): 1.22
- AUC predicted/ observed ratio (PBPK model; [28]): 0.97
- Cmax predicted/ observed ratio (PBPK model; [28]): 1.04
- AUC predicted/ observed ratio (PBPK model; [29]): 1.08
- Cmax predicted/ observed ratio (PBPK model; [29]): 0.98
- AUC predicted/ observed ratio (PBPK model; [30]): 0.82
- Cmax predicted/ observed ratio (PBPK model; [30]): 1.16
- AUC predicted/ observed ratio (PBPK model; [31]): 0.81
- Cmax predicted/ observed ratio (PBPK model; [31]): 0.98
- AUC predicted/ observed ratio (PBPK model; [32]): 0.82
- Cmax predicted/ observed ratio (PBPK model; [32]): 0.92
- AUC predicted/ observed ratio (PBPK model; [33]): 0.81
- Cmax predicted/ observed ratio (PBPK model; [33]): 0.97
- AUC predicted/ observed ratio (PBPK model; [34]): 0.80
- Cmax predicted/ observed ratio (PBPK model; [34]): 0.92
- AUC predicted/ observed ratio (PBPK model; [35]): 0.78
- Cmax predicted/ observed ratio (PBPK model; [35]): 1.04
- AUC predicted/ observed ratio (PBPK model; [36]): 0.83
- Cmax predicted/ observed ratio (PBPK model; [36]): 1.13
- fm,UGT1A9 observed (UGT1A9 [6]): 0.70
- microsomal CLint (UGT1A9 [6]): 35 µL/min/mg
- fm,UGT2B7 observed (UGT2B4/2B7 [7]): 0.16
- microsomal CLint [8]: 8 µL/min/mg
- fm,CYP3A4 observed (CYP3A4 [19]; fm,CYP × % contribution): 0.103
- CLint, CYP: CYP3A4 (CYP3A4 [19]; [26]): 0.041 µL/min/pmol
- Fe observed (fraction excreted unchanged in urine) [10]: 0.02
SMILES: CCOc1ccc(Cc2cc([C@]34OC[C@](CO)(O3)[C@@H](O)[C@H](O)[C@H]4O)ccc2Cl)cc1 [Ertugliflozin, ertugliflozin]
- Share of systemic UGT clearance occurring in the liver (UGT): 90%
- Renal excretion of unchanged drug [4]: ~ 2%
- Elimination by glucuronidation [4]: ~ 86%
- Elimination by oxidation (converted to oxidative metabolites) [4]: ~ 12%
- Contribution of CYP3A5 to oxidative metabolism (CYP3A5 [11]): 10%
- Contribution of CYP3A5 to oxidative metabolism (CYP3A5 [11]; listed as ertugliflozin): 10% and 0–10%
- Relative contribution of UGT2B4/2B7 to glucuronidation (UGT2B4/2B7 [13]; in vitro UGT reaction phenotyping, assigned to UGT2B7 in model): 19%
- LogP [1]: 2.5
- Contribution of CYP3A4 to oxidative metabolism (CYP3A4 [14]): 86%
- Contribution of CYP3A4 to oxidative metabolism (CYP3A4 [14]; listed as ertugliflozin): 86% and 85–100%
- B/P ratio [5]: 0.66
- Relative contribution of UGT1A9 to glucuronidation (UGT1A9 [16]): 81%
- Caco‐2 permeability coefficient (Caco‐2): 4.1 10^–6 cm/s
- Contribution of CYP2C8 to oxidative metabolism (CYP2C8 [17]): 4%
- Contribution of CYP2C8 to oxidative metabolism (CYP2C8 [17]; listed as ertugliflozin): 4% and 0–4%
- Fu,plasma [18]: 0.064
- Vss [2, 24]: 1.23 L/kg
- Observed AUCinf [2, 37]: 45.7 (10) ng·h/mL
- Observed Cmax [2, 37]: 7.23 (11) ng/mL
- Observed AUCinf [2, 38]: 231 (22) ng·h/mL
- Observed Cmax [2, 38]: 42.8 (21) ng/mL
- Observed AUCinf [2, 39]: 909 (15) ng·h/mL
- Observed Cmax [2, 39]: 182 (22) ng/mL
- Observed AUCinf [2, 40]: 2810 (18) ng·h/mL
- Observed Cmax [2, 40]: 545 (24) ng/mL
- Observed AUCinf [2, 41]: 9610 (16) ng·h/mL
- Observed Cmax [2, 41]: 1620 (16) ng/mL
- Observed AUCinf [2, 42]: 26400 (16) ng·h/mL
- Observed Cmax [2, 42]: 4330 (20) ng/mL
- Fa ([2]; fraction absorbed, absolute bioavailability study): 1.0
- CLiv [2, 24]: 11.2 L/h

- estimated unbound maximum steady-state concentration (Cmax,ss,u) [20]: 29 µM
SMILES: CCCN(CCC)S(=O)(=O)c1ccc(C(=O)O)cc1 [probenecid]

SMILES: Nc1nc(CC(=O)Nc2ccc(CCNC[C@H](O)c3ccccc3)cc2)cs1 [mirabegron]
- UGT2B7-mediated metabolism incorporated in PBPK model (UGT2B4/2B7 [13]): ~ 30%
